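Assay format: 96-well plates, 48-hour exposure. At the TGI there is no net growth.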
Experiments:
Assay in all cases: NCI tumour cell line growth inhibition, 48 h
SW-620 colon = tested on: SW-620 colon
BT-549 breast = tested on: BT-549 breast
A549 NSCLC = tested on: A549 NSCLC
UACC-257 melanoma = tested on: UACC-257 melanoma
COLO 205 colon = tested on: COLO 205 colon
HL-60(TB) leukemia = tested on: HL-60(TB) leukemia
CCRF-CEM leukemia = tested on: CCRF-CEM leukemia
KM12 colon = tested on: KM12 colon
NCI/ADR-RES ovarian = tested on: NCI/ADR-RES ovarian
A498 renal = tested on: A498 renal

Structure (SMILES) | TGI (SW-620 colon) [µM] | TGI (BT-549 breast) [µM] | TGI (A549 NSCLC) [µM] | TGI (UACC-257 melanoma) [µM] | TGI (COLO 205 colon) [µM] | TGI (HL-60(TB) leukemia) [µM] | TGI (CCRF-CEM leukemia) [µM] | TGI (KM12 colon) [µM] | TGI (NCI/ADR-RES ovarian) [µM] | TGI (A498 renal) [µM]
O=C(NNC1=NCCN1)c1ccco1 | > 100 | > 100 | > 100 | > 100 | > 100 | > 100 | > 100 | > 100 | > 100 | 
COC(=O)c1ccc2c(O)c(O)ccc2c1 | 25.3 | 27.2 | 42 | 28.1 | 26.7 | 5.06 | > 27 | 30.8 | 48.1 | 47.7
COc1nc(N)c(NC2OC(CO)C(O)C2O)c(=O)[nH]1 (stereo not drawn) | > 100 | > 100 | > 100 | > 100 | > 100 | > 100 | > 100 | > 100 | > 100 | > 100
CCC1(CC)CC(=NNS(=O)(=O)c2ccc(C)cc2)C1 | > 100 | > 100 | > 100 | > 100 | > 100 | > 100 | > 100 | > 100 | > 100 | > 100
CCCN(C(=O)c1c(Cl)nnc(Cl)c1C(=O)c1cc(Cl)nnc1Cl)c1cc(Cl)nnc1Cl | 25.5 | 32.9 | > 100 | 42.1 | 18.6 | 7.16 | 10.6 | 26.4 | 69.1 | 33.1
COC(=O)C1C(OC(=O)c2ccccc2)CC2CCC1N2C(N)=O (stereo not drawn) | > 100 | > 100 | > 100 | > 100 | > 100 | > 100 | > 100 | > 100 | > 100 | > 100
CN(/N=C(\C(=O)O)c1ccccc1)C1=NCCCN1 | > 100 | > 100 | > 100 | > 100 | > 100 | > 100 | > 100 | > 100 | > 100 | > 100
O=C(CN1CCNCCN(CC(=O)N2CCCCC2)CCNCC1)N1CCCCC1 | > 100 | > 100 | > 100 | > 100 | > 100 | 69.4 | > 100 | > 100 | > 100 | > 100
CC1C(c2ccccc2)OP(=O)(OC(C#N)c2ccccc2)N1C (stereo not drawn) | > 100 | > 100 | > 100 | > 100 | > 100 | > 100 | > 100 | > 100 | > 100 | > 100
CSc1nc(N)c(NC2OC(CO)C(O)C2O)c(=O)[nH]1 (stereo not drawn) | > 100 | > 100 | > 100 | > 100 | > 100 | > 100 | > 100 | > 100 | > 100 | > 100
Fc1ccc2nc3n(c2c1)C(c1c(F)cccc1F)SC3 (stereo not drawn) | > 100 | > 100 | > 100 | > 100 | > 100 | 53 |  | > 100 | > 100 | > 100
COc1ccc(NC2Oc3cc4c(cc3C(c3cccc(OC)c3OC)C2C)OCO4)cc1 (stereo not drawn) | > 100 | > 100 | > 100 | 69.2 | 19.2 | 10.9 | 47.1 | > 100 |  | 71.1
O=c1cc(-c2cccc(Cl)c2)[nH]c2ncccc12 | > 100 | > 100 | > 100 | > 100 |  | 0.152 | > 100 | > 100 | > 100 | > 100
COc1cccc(/C=C2/Sc3scc(-c4ccccc4)[n+]3C2=O)c1O | 43.8 | 45.1 | > 100 | 44.9 | > 100 | 39.6 | 30.4 | 40.4 | 42.3 | 
COC(=O)c1c2n(c3ccccc13)C[C@H]1OC(C)(C)O[C@@H]21 | > 100 | > 100 | > 100 | > 100 | > 100 | > 100 | > 100 | > 100 | > 100 | > 100
NNC(=O)c1ccc(-n2nnc(C(=O)NN)c2C(=O)NN)cc1 |  | > 100 | > 100 | > 100 | > 100 | > 100 | > 100 | > 100 | > 100 | 
COC(=O)C1CC2(CCC1=O)Cc1ccccc1C2=O (stereo not drawn) | > 100 | > 100 | > 100 | > 100 | > 100 | > 100 | > 100 | > 100 | > 100 | 
COc1ccc(N2C(=O)C3c4[nH]c5ccc(C)cc5c4C4CCC(C)CC4C3C2=O)cc1 (stereo not drawn) | > 100 | > 100 | > 100 | > 100 | > 100 |  | > 100 |  | > 100 | 85
COc1ccc(NC(=O)CC(=O)N2N=C(C)C(N=Nc3ccc(S(=O)(=O)c4ccc(N=NC5C(=O)N(C(=O)CC(=O)Nc6ccc(OC)cc6)N=C5C)cc4)cc3)C2=O)cc1 (stereo not drawn) | > 100 | > 100 | > 100 | > 100 | > 100 | > 100 | > 100 | > 100 | > 100 | > 100
CCCC(=O)NC1=C(NCC)C(=O)c2ccccc2C1=O | > 100 | > 100 | > 100 | > 100 | > 100 | > 100 | > 100 | > 100 |  | 
COCn1c2ccc(OC(C)=O)cc2c2c(=O)oc(N(C)C)nc21 | > 100 | > 100 | > 100 | > 100 | > 100 | > 100 | > 100 | > 100 | > 100 | > 100
[N-]=[N+]=Nc1c(-c2ccccc2)c(Cl)nc2ccccc12 | > 100 | 77.1 | > 100 | 59.8 | 44.7 | > 100 | > 100 | 45.2 | > 100 | 72.2
